Results: US12036226B2, “Methods of treating subjects having diabetes with chronic kidney disease” (Poxel SA, priority 2018, dated 2024)
Like-named read-outs stand apart in the source and are kept apart here.

Tests used:
subjects with T2DM = test: 24-week Phase IIb dose-ranging placebo-controlled study in subjects with T2DM; type: in vivo, human; conditions: for Mean HbA1c Change from Baseline: Week 24, T2D and Stage 2 and 3a CKD
Description: A 24-Week, Phase IIb, Dose-Ranging, Randomized, Double-blind, Placebo-controlled, Parallel-group Safety and Efficacy Study in Subjects with T2DM
The five parallel groups included 4 groups of imeglimin doses (500, 1000, 1500, or 2000 mg twice daily) and 1 placebo group. The primary endpoint was to assess the dose-response in T2D subjects, using change in HbA1c from baseline to week 24 as the primary evaluation criterion. Subjects could be either treatment naïve or treated with any oral antidiabetic monotherapy and were to have an eGFR of ≥50 mL/min/1.73 m^2. A total of 382 subjects were randomized 1:1:1:1:1 to one of the 5 study arms, with 315 subjects completing the study.

Protein binding = type: in vitro ADME
[1] = Daily steady-state exposure (AUC24,ss) in a Phase 2b clinical study; type: in vivo; conditions: human, plasma, oral, 1500 mg, 1500 mg BID treatment arm
Description: In addition, predicted daily steady-state exposures (AUC24,ss) for doses of 500 mg BID, 1500 mg QD, and 1000 mg BID in T2DM subjects with CKD stage 3B or 4 in a Phase 1b study were estimated using parameters from the population PK model; the mean AUC24,ss values and standard deviations are shown in FIG. 10. For reference, the mean AUC24,ss and standard deviation from a Phase 2b clinical study is also included in FIG. 10; the mean AUC24,ss in the 1500 mg BID treatment arm in that study was 36.5 μg·hr/mL (the AUC24,ss range was 10.1 to 169.3 μg·hr/mL). At each of the three dose levels, significant overlap in exposure between T2DM subjects with CKD3B and T2DM subjects with CKD4 was predicted as evidenced by the overlap of standard deviation bars between CKD3B and CKD4 subjects at each dose level.

C[C@H]1N=C(N(C)C)N=C(N)N1 [imeglimin, (6R)—N^2, N^2,6-trimethyl-3,6-dihydro-1,3,5-triazine-2,4-diamine]
Mean HbA1c Change from Baseline (subjects with T2DM; 500 mg BID (n = 44)): 0.007%
Mean HbA1c Change from Baseline (subjects with T2DM; 1000 mg BID (n = 43)): −0.072%
Mean HbA1c Change from Baseline (subjects with T2DM; 1500 mg BID (n = 41)): −0.502%
Mean HbA1c Change from Baseline (subjects with T2DM; 2000 mg BID (n = 42)): −0.193%
HbA1c lowering compared to placebo (subjects with T2DM; post-hoc analysis, stage 2 and 3a CKD (eGFR <90 mL/min/1.73 m^2, n=211)): improvement in HbA1c lowering as compared to placebo
protein binding (Protein binding): < 8 % bound
AUC ([1]; read-out: AUC24,ss range): 10100 to 169000 ng·h/mL
AUC ([1]; read-out: mean AUC24,ss): 36500 ng·h/mL
